The record followed here is patent US20210128690A1, “METHODS OF ADMINISTERING HEPCIDIN” (La Jolla Pharmaceutical Company, priority 2016, published 2021).

The assay is described as follows: hepcidin administration to human subjects (patients with sickle cell disease or hereditary hemochromatosis). It is filed as in vivo. Particulars: doses of 1 mg hepcidin and 5 mg hepcidin. From the text: FIG. 1 illustrates the change in serum ferritin levels at baseline and 8 days post hepcidin administration in two patients with sickle cell disease and a high ferritin serum baseline.
Efficacy at this dosing was not expected based on animal studies in mice, rats, and dogs.

For the molecule `CC[C@H](C)[C@@H]1NC(=O)[C@@H](NC(=O)[C@@H](NC(=O)[C@@H]2CCCN2C(=O)[C@H](Cc2ccccc2)NC(=O)[C@H](Cc2c[nH]cn2)NC(=O)[C@@H](NC(=O)[C@@H](N)CC(=O)O)[C@@H](C)O)[C@@H](C)CC)CSSC[C@@H](C(=O)N[C@@H](CCCCN)C(=O)N[C@H](C(=O)O)[C@@H](C)O)NC(=O)[C@@H]2CSSC[C@@H]3NC(=O)[C@@H]4CSSC[C@H](NC(=O)[C@H](Cc5ccccc5)NC1=O)C(=O)N[C@@H](CSSC[C@H](NC(=O)[C@H](CCCCN)NC(=O)[C@H](CO)NC(=O)[C@H](CCCNC(=N)N)NC(=O)[C@H](Cc1c[nH]cn1)NC3=O)C(=O)NCC(=O)N[C@@H](CCSC)C(=O)N2)C(=O)NCC(=O)N4` [hepcidin], the “efficacy in human subjects” value is recorded as “display efficacy”.
